Test results taken from the RepoRT retention time repository (doi:10.1007/s00216-013-6954-6).

Assay: RP, Waters ACQUITY UPLC HSS T3, 150 × 2.1 mm, 1.8 µm; A: water + 0.1% formic acid; B: acetonitrile + 0.1% formic acid; gradient (min/%B) 0/5 1/5 16/95 18/95
Details: stereoisomer not certain
`CC(C)CC(NC(=O)C(N)C(C)C)C(=O)O` (stereo unspecified) showed an LC retention time of 2.7 min.
Work on `CCC(C)C(NC(=O)C(N)CC(C)C)C(=O)O` (stereo unspecified) yielded an LC retention time of 3.3 min.
`COc1cc2ccc(=O)oc2cc1O` gave an LC retention time of 4.5 min.
`Cc1cn(C2CC(O)C(CO)O2)c(=O)[nH]c1=O` (stereo unspecified) gave an LC retention time of 1.6 min.
For `CCCCCCCCC=CCCCCCCCC(=O)OCC(O)COP(=O)(O)OCC[N+](C)(C)C` (stereo unspecified), the LC retention time was 12 min.
For `CC12CCC(=O)C=C1CCC1C2C(O)CC2(C)C1CCC2(O)C(=O)CO` (stereo unspecified), the LC retention time was 6.56 min.
Compound `CCC(C)C(N)C(=O)NC(CC(C)C)C(=O)O` (stereo unspecified) has an LC retention time of 3.4 min.
In the case of `O=C(O)CCCCCC(=O)O`, the LC retention time is reported as 3.47 min.
With `CS(=O)CCCCCCCCN=C=S` (stereo unspecified) the LC retention time was 8.1 min.
`COn1cc(CN)c2ccccc21` showed an LC retention time of 3.7 min.
With `O=c1[nH]c(=O)c2[nH]c(=O)[nH]c2[nH]1` the LC retention time was 0.643 min.
`O=C1CCC(C(=O)O)N1` (stereo unspecified) gave an LC retention time of 0.687 min.
Work on `CC(C)CC(NC(=O)C(N)Cc1ccc(O)cc1)C(=O)O` (stereo unspecified) yielded an LC retention time of 3.2 min.
Compound `CSCCC(N)C(=O)O` (stereo unspecified) has an LC retention time of 0.643 min.
`O=C(O)CCCCC(=O)O` showed an LC retention time of 2.33 min.
For `COc1cc2ccc(=O)oc2cc1OC1OC(CO)C(O)C(O)C1O` (stereo unspecified), the LC retention time was 3.3 min.
In the case of `CC(C)CC(N)C(=O)NC(Cc1ccccc1)C(=O)O` (stereo unspecified), the LC retention time is reported as 4.2 min.
In the case of `CCC(C)C(NC(=O)C(N)Cc1ccc(O)cc1)C(=O)O` (stereo unspecified), the LC retention time is reported as 2.9 min.
`NCCS(=O)(=O)O` showed an LC retention time of 0.446 min.
With `O=C(O)CNC(=O)c1ccccc1` the LC retention time was 3.39 min.
Work on `O=C(O)C1CCCN1` (stereo unspecified) yielded an LC retention time of 0.482 min.
In the case of `COc1cc(CC2COC(c3ccc(O)c(OC)c3)C2CO)ccc1O` (stereo unspecified), the LC retention time is reported as 5.6 min.
In the case of `COc1cccc2[nH]cc(CN)c12`, the LC retention time is reported as 3.2 min.
Work on `CC(CCC(=O)O)C1CCC2C3C(O)CC4CC(O)CCC4(C)C3CC(O)C12C` (stereo unspecified) yielded an LC retention time of 8.94 min.
In the case of `CC12CCC(=O)C=C1CCC1C2C(=O)CC2(C)C1CCC2(O)C(=O)CO` (stereo unspecified), the LC retention time is reported as 6.61 min.
Compound `CC(C)CC(N)C(=O)N1CCCC1C(=O)O` (stereo unspecified) has an LC retention time of 2.62 min.
For `Nc1ccc(C(=O)O)cc1`, the LC retention time was 1.95 min.
In the case of `Nc1nc2c(ncn2C2OC(CO)C(O)C2O)c(=O)[nH]1` (stereo unspecified), the LC retention time is reported as 1.1 min.
With `O=c1ccc2cc(OC3OC(CO)C(O)C(O)C3O)c(O)cc2o1` (stereo unspecified) the LC retention time was 2.9 min.
Work on `NC(=O)NCCCC(N)C(=O)O` (stereo unspecified) yielded an LC retention time of 0.457 min.
Compound `CSCCCCCCCC(N)C(=O)O` (stereo unspecified) has an LC retention time of 4.6 min.
Work on `NCc1c[nH]c2ccccc12` yielded an LC retention time of 1.8 min.
`CC(CCC(=O)O)C1CCC2C3C(O)CC4CC(O)CCC4(C)C3CCC12C` (stereo unspecified) gave an LC retention time of 10.5 min.
Compound `O=c1[nH]cnc2c1ncn2C1OC(CO)C(O)C1O` (stereo unspecified) has an LC retention time of 0.839 min.
`Nc1ncnc2nc[nH]c12` gave an LC retention time of 0.525 min.
`CC(CCC(=O)NCC(=O)O)C1CCC2C3C(O)CC4CC(O)CCC4(C)C3CC(O)C12C` (stereo unspecified) showed an LC retention time of 7.92 min.
`O=C(O)C1Cc2c([nH]c3ccccc23)CN1` (stereo unspecified) gave an LC retention time of 3.1 min.
For `NCC(=O)NC(Cc1ccccc1)C(=O)O` (stereo unspecified), the LC retention time was 2.3 min.
`NC(N)=NCCCC(N)C(=O)O` (stereo unspecified) gave an LC retention time of 0.413 min.
With `CC(C)CC(N)C(=O)O` (stereo unspecified) the LC retention time was 0.795 min.
Compound `CC(C)C(NC(=O)C(N)Cc1ccccc1)C(=O)O` (stereo unspecified) has an LC retention time of 3 min.
With `Cn1c(=O)c2c(ncn2C)n(C)c1=O` the LC retention time was 3.46 min.
Work on `CC(CCC(=O)NCCS(=O)(=O)O)C1CCC2C3C(O)CC4CC(O)CCC4(C)C3CC(O)C12C` (stereo unspecified) yielded an LC retention time of 7.57 min.
`CSCCCCCCCCC(N)C(=O)O` (stereo unspecified) showed an LC retention time of 5.4 min.
Compound `O=C(O)CCCC(=O)O` has an LC retention time of 1.14 min.
In the case of `CCC(C)C(NC(=O)C(N)Cc1ccccc1)C(=O)O` (stereo unspecified), the LC retention time is reported as 3.8 min.
Compound `O=C(O)c1c[nH]c2ccccc12` has an LC retention time of 4.7 min.
In the case of `O=c1cc[nH]c(=O)[nH]1`, the LC retention time is reported as 0.638 min.
`CCC(C)C(N)C(=O)O` (stereo unspecified) showed an LC retention time of 0.795 min.
`CC(C)CC(N)C(=O)NC(CC(C)C)C(=O)O` (stereo unspecified) gave an LC retention time of 3.6 min.
Work on `CC(C(=O)O)C(=O)O` yielded an LC retention time of 0.733 min.
With `CC(C)CC(N)C(=O)NC(Cc1ccc(O)cc1)C(=O)O` (stereo unspecified) the LC retention time was 2.8 min.
Compound `CCCCCCCCCCCCCCCC(=O)OCC(O)COP(=O)([O-])OCC[N+](C)(C)C` (stereo unspecified) has an LC retention time of 11.6 min.
In the case of `CCC(C)C(N)C(=O)NC(C(=O)O)C(C)CC` (stereo unspecified), the LC retention time is reported as 3.1 min.
For `O=C(O)Cc1ccccc1`, the LC retention time was 3.6 min.
Work on `CCC(C)C(N)C(=O)NC(Cc1ccccc1)C(=O)O` (stereo unspecified) yielded an LC retention time of 3.9 min.
